Numbered stars: 1 amine (or outer) side, 2 acyl side, 3 side chain; on linkers, the order of the positions; unused ones are H or OH. Bridge positions count the residues as written; N and C are the ends. Peptide text beside a SMILES is read from it. X1 = O=C(C[*:1])NCCCCCNC(=O)C[*:2]
How the values were obtained:
[1] = target: interaction between SARS-CoV-2 spike RBD and ACE2 (Severe acute respiratory syndrome coronavirus 2, UniProt P0DTC2); assay: biochemical; type: binding; settings: n = 3
[2] = CD measurement of helical content; type: physicochemical
[3] = target: T1, HDM2 (human double minute 2) (Homo sapiens, UniProt Q00987); assay: Fluorescence polarisation competition binding assay against FAM-ATSP-3848; settings: for inhibition of FAM-ATSP-3848 binding to HDM2 (in words): fluorescence polarisation, 100 nM HDM2, 10 nM FAM-ATSP-3848
T1 construct: His-tag; made in house
Protocol: Fig. 4 Position–amino acid pattern enrichment analysis of the HDM2-R3 pool. (a) Pattern enrichment score calculation. For both sequence data (FASTQ), the abundance of each position–amino acid pattern was determined. Enrichment values were calculated as the ratio of abundance in the selected sample to that in the control sample. (b) Venn diagram showing pattern coverage (white, whole space of three-window patterns; blue, patterns found in Amp-R3 dataset; red, patterns found in HDM2-R3 dataset). (c) Scattering plot indicating the abundance of control (x-axis) and HDM2-R3 selected sample (y-axis). Red circles are patterns with log2(ratio) values greater than 8. (d) Position–amino acid patterns ranked in the top 20. (e) WebLogo depicting enriched sequences determined from enriched patterns with log2(ratio) values greater than 8. (f) Sequences and helical wheel diagrams of HDM2-p13 and HDM2-opt peptides. Highly enriched residues are coloured red. (g) Fluorescence polarisation assay for competitive inhibition. Peptides (50 nM to 50 μM) were mixed with 100 nM HDM2 and 10 nM FAM-ATSP-3848. […] Error bar represents SD (n = 3).
Competition binding assay
The peptides (50 nM–50 µM) was mixed with 100 nM of HDM2 and 10 nM of FAM-AT P S-3848 in HBS buffer (10 mM HEPES, 150 mM NaCl, pH 7.5). The fluorescence polarization was measured by ARVO MX plate […]
values of peptide inhibitors were calculated by nonlinear regression analysis using Prism (GraphPad Software).
Pull-down competition binding assay
Recombinant SARS-CoV-2 Spike RBD His Biotin Protein (R&D Systems, BT10500) at 4 µg/mL concentration in HBS buffer was incubated with 3 mg/mL of DynaBeads M-280 (ThermoFisher) for 2 hours at 4 °C. […]
After one hour incubation at room temperature, the beads were rinsed three times with HBS-T ( 2 0 0 µL/well). […] The chemiluminescent bands were detected using LuminoGraphI (ATTO) with ImageSaver6 software. From the band intensities, IC50 values of peptide inhibitors were calculated by nonlinear regression analysis using Prism (GraphPad Software).

T1 sequence (Q00987 whole entry): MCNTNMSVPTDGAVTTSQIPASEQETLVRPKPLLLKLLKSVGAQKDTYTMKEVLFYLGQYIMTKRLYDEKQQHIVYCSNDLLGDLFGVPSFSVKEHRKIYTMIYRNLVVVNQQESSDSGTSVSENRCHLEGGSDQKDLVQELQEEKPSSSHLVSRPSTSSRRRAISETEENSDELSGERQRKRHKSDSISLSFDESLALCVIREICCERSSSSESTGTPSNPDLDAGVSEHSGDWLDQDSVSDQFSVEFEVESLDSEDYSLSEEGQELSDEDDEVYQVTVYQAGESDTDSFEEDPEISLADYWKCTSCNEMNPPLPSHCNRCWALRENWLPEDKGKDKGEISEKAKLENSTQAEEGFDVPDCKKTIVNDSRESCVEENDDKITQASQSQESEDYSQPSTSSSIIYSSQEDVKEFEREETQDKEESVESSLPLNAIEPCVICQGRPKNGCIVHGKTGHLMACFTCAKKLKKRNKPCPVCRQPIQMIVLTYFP

SMILES | IC50 [1] [µM] | conformational preference (in words) [2] | helical content ([2]; pH 7.5) [%] | inhibition of FAM-ATSP-3848 binding to HDM2 (in words) [3] | IC50 ([3]; competitive inhibition FP, peptides 50 nM to 50 μM, 100 nM HDM2, 10 nM FAM-ATSP-3848, HBS buffer (10 mM HEPES, 150 mM NaCl, pH 7.5), SD, n = 3) [µM] | helical content ([2]; CD, 25% TFE, 30 µM peptide, HBS buffer (10 mM HEPES, 150 mM NaCl, pH 7.5), calculated by BeStSel web server) [%]
CC(C)C[C@@H]1NC(=O)[C@@H](NC(=O)[C@@H](N)[C@@H](C)O)CSCC(=O)NCCCCCNC(=O)CSC[C@@H](C(=O)N[C@@H](Cc2ccccc2)C(N)=O)NC(=O)[C@H](CCC(=O)O)NC(=O)[C@H](Cc2ccccc2)NC(=O)[C@H](Cc2c[nH]c3ccccc23)NC(=O)[C@H](CO)NC(=O)[C@H](CO)NC1=O [CoV-2-p2] (H-TCLSSWFECF-NH2; linker 2-9 via X1) | 12.9 ± 4.9 | prefer a helical conformation | 45 | – | – | –
CC(C)C[C@@H]1NC(=O)[C@H](Cc2ccc(O)cc2)NC(=O)[C@H](CC(=O)O)NC(=O)[C@H](Cc2ccccc2)NC(=O)CNC(=O)[C@H](Cc2c[nH]c3ccccc23)NC(=O)[C@@H](NC(=O)[C@@H](N)[C@@H](C)O)CSCC(=O)NCCCCCNC(=O)CSC[C@@H](C(=O)N[C@@H](Cc2c[nH]c3ccccc23)C(N)=O)NC1=O [CoV-2-p5] (H-TCWGFDYLCW-NH2; linker 2-9 via X1) | 3.8 ± 3.3 | – | 12 | – | – | –
CC(C)C[C@H](NC(=O)[C@@H]1CSCC(=O)NCCCCCNC(=O)CSC[C@H](NC(=O)[C@@H]2CCCN2)C(=O)N[C@@H](Cc2ccccc2)C(=O)N[C@@H](Cc2ccc(O)cc2)C(=O)N[C@@H](CC(=O)O)C(=O)N[C@@H](Cc2ccc(O)cc2)C(=O)N[C@@H](Cc2c[nH]c3ccccc23)C(=O)N[C@@H](CCC(N)=O)C(=O)N1)C(N)=O [HDM2-opt] (H-PCFYDYWQCL-NH2; linker 2-9 via X1) | – | – | – | exhibited effective inhibition | – | –
CC(C)C[C@H](NC(=O)[C@@H]1CSCC(=O)NCCCCCNC(=O)CSC[C@H](NC(=O)[C@H](C)N)C(=O)N[C@@H](Cc2ccccc2)C(=O)N[C@@H](CC(=O)O)C(=O)N[C@@H](CCC(=O)O)C(=O)N[C@@H](Cc2ccc(O)cc2)C(=O)N[C@@H](Cc2c[nH]c3ccccc23)C(=O)N[C@@H](CCC(N)=O)C(=O)N1)C(N)=O [HDM2-p13] (H-ACFDEYWQCL-NH2; linker 2-9 via X1) | – | – | – | inhibited the high-affinity binding | 4.8 ± 0.6 | 43
